The test system of one test is endogenous 2OG enzymes. The test can be described thus: Effect of 6A/B on post-translational/post-synthetic modifications in HEK293T cells (Western blot, dot blot). The test is classed as cell-based, human. The procedure:
To test the orthogonality of NOL toward wild type KDM4A, HEK293T cells, either nontransfected or transfected with KDM4A, were individually treated with DMSO, 400 μM 6A or 10 μM n-octyl IOX1, a nonspecific inhibitor of 2OG enzymes. […] To further probe for off-target effects of 6 on endogenous 2OG enzymes, HEK293T cells were cultured with DMSO or 400 μM 6A and examined for several postsynthetic modifications catalyzed by these dioxygenases. Key trimethylated lysine marks on extracted histone were analyzed by Western blot using corresponding antibodies (Figure S31). […] Similarly, no change in prolyl hydroxylation was detected when cellular extracts were subjected to the pan hydroxyproline antibody. […]
washed with TBST 3 times, 5 minutes each and incubated with methylene blue solution (Sigma 03978) for loading determination.
15. Determining the effect of 6A/B on post-translational modifications in HEK293T cells To determine the effects of 6B on 5hmC and 5mC levels, and correspondingly any proteins responsible for addition or removal of these motifs, HEK293-T cells (ATCC CRL-1573) were plated into 6-well tissue culture plates (Corning) in DMEM (Corning) supplemented with 10% FBS (Corning) and 1X Antibiotic/Antimycin (Penicillin/Streptomycin/Fungiozone) (Cytiva HyClone) in an incubator held at 37 °C with 5% CO2. At 75% confluency, cells were treated with 200µM 6B or equivalent volume of DMSO and left to incubate at 37 °C. 24 hours later, the media was aspirated, washed with 1X PBS (Corning) and uplifted via trypsinization (Gibco TrypLE™ Express Enzyme). Cells were centrifuged at 3000xg for 3 minutes, washed with 1X PBS and centrifuged again at 3000xg for 3 minutes.
To study the effect on genomic DNA, genomic DNA was extracted with Fisher GeneJET gemoic DNA Purification Kit (Fisher K0721) following manufactures protocol. 1000ng of gDNA, as measured via nanodrop, was then subject to Dot Blot experiment. Briefly, 20µL of 1000ng gDNA was added to 40µL of 2M NaOH-50mM EDTA solution for 3 minutes at room temperature. 140µL of 10mM Tris/1mM EDTA pH 8.0 (TE) buffer was added and heated at 95 °C for 10 minutes.
Aliquots were then transferred directly to ice and 200µL of 2M Ammonium Acetate was added and left on ice for 5 minutes. Meanwhile, PVDF Imoblinin P (Merck Millipore Ltd.) membrane was cut to size, activated with MeOH for 30 seconds and incubated in TE buffer for 5 minutes while shaking. The membrane was then placed on a 96-well Bio-Dot microfiltration apparatus (Bio-Rad), washed with 400µL of TE buffer and the gDNA solution was applied and vacuum filtered. 400µL of TE buffer was then used to wash the membrane post gDNA binding. The membrane was then dried at 37 °C for 30 minutes followed by blocking in 5% milk concentrate (Bio-Rad) TBST solution for 1 hour at room temperature. Primary antibody 5-mC (Abcam […]
was applied and left to rotate overnight at 4 °C. The following day, the blots were washed 3 times, 5 minutes each with TBST and secondary antibody of goat-anti Rabbit antibody (CST 7074) in 5% milk/TBST at 1-10000 dilution was added for 1 hour at room temperature while shaking. The […]
To study the effect of histone methyl motifs (H3K4me3, H3K9me3, H3K27me3, H3K36me3, H3K79me3) and hydroxyproline motif, cell pellets were lysed with RIPA buffer with EDTA (Fisher J61529) supplemented with 1X protease inhibitor tablet (Roche). […] The protein concentration was determined using Bradford assay kit (BioRad Laboratories) with BSA as a […]

A further test deals with T1, KDM4A-F185A (Homo sapiens, UniProt O75164, F185A).
T1 construct: human KDM4A-jmjC domain (catalytic domain of KDM4A); 6xHis (N); host or cells: E. coli BL21 (DE3)
T1 sequence (O75164 142-308 F185A limits assumed): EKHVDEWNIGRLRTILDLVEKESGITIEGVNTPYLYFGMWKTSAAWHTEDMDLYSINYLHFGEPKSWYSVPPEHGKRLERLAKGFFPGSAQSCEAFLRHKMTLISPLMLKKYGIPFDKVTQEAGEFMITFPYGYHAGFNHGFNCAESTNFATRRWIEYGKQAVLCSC
The test can be described thus: Coupled fluorescence end-point assay for IC50. The test is classed as biochemical. The procedure:
To probe the efficacy of bulky NOGs against the mutant, the inhibitory constant at half-maximal (IC50) was determined by the coupled enzymatic assay using increasing amounts of the NOG analogue at fixed concentrations of cofactor and substrate.
NADH (ACROS, cat #124530050) was added to assay buffer (50 mM HEPES pH 8, 50 µM (NH4)2Fe(SO4)2, 1 mM L-ascorbic acid, 1 mM NAD+, 200 nM FDH, and 1 µM KDM4A) in varying concentrations (0-10 µM). The experiments were performed in 384-well white Corning plates. The fluorescence intensity was measured with excitation = 340 nm and emission = 490 nm on a TECAN Infinite M1000Pro. Triplicate values were taken for each concentration.
The set up and analysis for IC50 of L-Leu NOG against KDM4A F185A enzyme was similar to that described in the coupled fluorescence assay section, but adjusted to function as an end point assay. The assay composed of an enzyme cocktail (50mM HEPES pH 8.0, 75 µM (NH4)2Fe(SO4)2, 2 mM L-ascorbic acid, 1 mM NAD+, 200 nM FDH, 3 µM wild type KDM4A or KDM4A-F185A, and varying concentration of compounds (NOGs 6, 9 and 10) and a substrate cocktail (200 µM […]
2OG and 60 µM H3K9me3 peptide). […]
IC50 measurements were performed in triplicates. The data was plotted in GraphPad Prism to the equation Y=Bottom + (Top-Bottom)/(1+10^(X-LogIC50)), where Y = % Activity, and Bottom and Top being the lower and upper most plateaus of percent activity, respectively. […]

For the compound `CCCCCCCCOC(=O)C(=O)NC(CC(C)C)C(=O)O` [6A, L-Leu octyl-ester NOG], the “prolyl hydroxylation (pan hydroxyproline antibody)” value in the test with endogenous 2OG enzymes (HEK293T cells, 400 μM 6A) is “no change”. Besides, in the test with endogenous 2OG enzymes (HEK293T cells, 400 μM 6A, Western blot), the “trimethylated K4, K9, K27, and K36 levels in histone H3” value is on record as “No change”. The “5mC, 5hmC, and m6A modifications on DNA and RNA” value in the test on endogenous 2OG enzymes (HEK293T cells, dot blot assays) is “no effect”. Moreover, the “5mC and 5hmC marks on genomic DNA” value with endogenous 2OG enzymes (HEK293T cells, dot-blot assay) is listed as “no inhibitory effect”. In the test on endogenous 2OG enzymes (HEK293T cellular extracts, pan antibodies, Western blot), the “dimethyllysine, trimethyllysine and hydroxyproline marks on cellular proteins” value is given as “no inhibitory effect”.

By IC50 is commonly meant the point on the concentration scale where inhibition reaches its midpoint. As for `CC(C)CC(NC(=O)C(=O)O)C(=O)O` (centres unmarked) [compound 6, N-oxalyl leucine], the IC50 worked out at 0.7 ± 0.1 µM on KDM4A-F185A (dose-dependent inhibition of F185A, 200 µM 2OG, 60 µM H3K9me3 peptide); 0.7 ± 0.1 µM at KDM4A-F185A (time-dependent inhibition of F185A, 1 hour); 1.2 ± 0.2 µM at KDM4A-F185A (time-dependent inhibition of F185A, 2 hour); 1.5 ± 0.3 µM on KDM4A-F185A (time-dependent inhibition of F185A, 3 hour); 1.8 ± 0.5 µM on KDM4A-F185A (time-dependent inhibition of F185A, 4 hour); 2.2 ± 0.5 µM on KDM4A-F185A (time-dependent inhibition of F185A, 5 hour (text: monitored over more than 5 h)).

These data come from publication PMC11783601, “Analogue-Sensitive Inhibition of Histone Demethylases Uncovers Member-Specific Function in Ribosomal Protein Synthesis” (Journal of the American Chemical Society, 2025).
